We go through 2 molecules from US5246932A, “Heterocyclic compounds” (Imperial Chemical Industries PLC, priority 1991, dated 1993).

Assay [1] concerns vasodilation response during twitch contraction of skeletal muscle. In words: Anaesthetised cat exercise hyperaemia test. In kind it is in vivo. The settings on record: 10 mg.kg^-1. The procedure: f) Anaesthetised cat exercise hyperaemia test
This test involves assessment of the effect of a test compound to antagonise the vasodilation response which occurs during twitch contraction of skeletal muscle. The vasodilation is mediated partly by the release of endogenous adenosine from the contracting skeletal muscle.
Cats (2.4-3.6 kg) are anaesthetised with sodium pentobarbitone (50 mg.kg^-1 ip). The following blood vessels are catheterized: left jugular vein (for infusion of anaesthetic, at approximately […] as a 6 mg.ml^-1 solution in isotonic saline), right external jugular vein (for administration of drugs and test compounds), right common carotid artery (for measurement of systemic arterial blood pressure and pulse rate) and right brachial artery (for withdrawal of blood).
Blood flow to the left hind limb is measured with an electromagnetic flow probe around the left external iliac artery. The whole of the left hind limb is made to contract at 3 Hz for 20 minutes duration by stimulating the sciatic and femoral nerves. Active tension produced by the extensor digitorum longus and peroneous longus muscles is measured isometrically with a force transducer. Exercise is repeated twice within the same animal, in either the absence or presence of the test compound. Test compounds are assessed for their ability to reduce the vasodilatation during skeletal muscle contraction.

The target in assay [2] is adenosine receptor known as A2. In words: Guinea-pig Aortic Constriction Test. In kind it is biochemical. The settings on record: antagonism of adenosine relaxation of phenylephrine-constricted guinea-pig aortic ring. An excerpt:
(b) Guinea-pig Aortic Constriction Test
This test has been described by Collis et al. (British J. Pharmacology, 1989, 97, 1274-1278) and involves the assessment of the ability of a test compound to antagonise the attenuatory effect of adenosine on phenylephrine induced constriction of a guinea-pig aortic ring preparation, an effect mediated via the adenosine receptor known as A2.
The aortic ring preparation is obtained as follows:- Sections (3-5 mm) of guinea pig thoracic aorta (from Dunkin Hartley strain, 250-400 g males) are mounted in organ baths containing oxygenated Krebs solution (95% O2 : 5% CO2) at 37° C. [The nucleoside transport inhibitor, dipyridamole (10 μM) is present in the Krebs solution]. The isometric tension development is recorded and the tissue placed under a resting tension of 1 g and allowed to equilibrate for 1 hour. […] Adenosine is next added cumulatively (10^-7 M to 10^-3 M) and the evoked relaxation is measured. […]
Test compounds are assessed by plotting the percentage relaxation observed against the logarithm of the adenosine concentration, competitive adenosine antagonism producing a parallel shift in the standard adenosine concentration/relaxation (dose response) curve. […] The pA2 value, which is an estimate of the concentration of antagonist to give a dose ratio of 2, may also be calculated using a standard computation technique.

In assay [3] the target is T1, adenosine receptor known as A1 (Cavia porcellus, UniProt P47745).
T1 construct: Atrial pairs are obtained from guinea-pigs (Dunkin Hartley strain); from tissue; host or cells: guinea-pig spontaneously beating atrial pairs (Dunkin Hartley)
T1 sequence (P47745 1-326): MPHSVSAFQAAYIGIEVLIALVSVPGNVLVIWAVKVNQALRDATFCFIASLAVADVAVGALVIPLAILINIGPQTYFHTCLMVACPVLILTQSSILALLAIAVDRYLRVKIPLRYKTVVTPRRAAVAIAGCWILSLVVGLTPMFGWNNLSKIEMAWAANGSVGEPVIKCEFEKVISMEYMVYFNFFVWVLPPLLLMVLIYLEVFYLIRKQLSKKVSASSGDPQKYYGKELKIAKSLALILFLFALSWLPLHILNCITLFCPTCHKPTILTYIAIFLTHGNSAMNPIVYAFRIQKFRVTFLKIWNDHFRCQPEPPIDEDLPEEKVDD
The assay can be described thus: Guinea-pig Atrial Bradycardic Test. In kind it is biochemical. The settings on record: antagonism of 2-chloroadenosine bradycardia in beating guinea-pig atrial pair; read-out: pA2 (converted). The method, then: (c) Guinea-pig Atrial Bradycardic Test
The atrial pair preparation may be obtained as follows: Atrial pairs are obtained from guinea-pigs (Dunkin Hartley strain, 250-400 g males) and mounted in organ baths containing oxygenated Krebs buffer solution (95% O2; 5% CO2) at 37° C. The spontaneously beating atria are then placed under a resting tension of 1 g and allowed to equilibrate for 50 minutes with continuous overflow. Overflow is then stopped and adenosine deaminase (1 Unit/ml) added to prevent the accumulation of endogenously produced adenosine. After equilibration for 15 minutes, a cumulative dose response curve to the adenosine mimetic, 2-chloroadenosine(10^-8 M to 10^-4 M) is administered to produce a maximal slowing of atrial rate. After washout during 30 minutes, adenosine deaminase is readministered to the bath which is allowed to equilibrate for 15 minutes. A 10^-5 M solution of the test compound in DMSO is then added to the bath which is left to incubate for 30 minutes. Any effect on the beating rate due to the test compound is noted before the dose response curve to 2-chloroadenosine is repeated. Compounds which are adenosine antagonists attenuate the 2-chloroadenosine response.
Test compounds are assessed by comparing dose response curves to 2-chloroadenosine alone with those obtained in the presence of the compound. […]

Another assay has as its target T2, A2 Adenosine receptor (Rattus norvegicus, UniProt P30543).
T2 construct: membrane preparations derived from the rat phaeochromocytoma cell line PC 12; host or cells: PC 12 (rat phaeochromocytoma) membranes
The assay can be described thus: A2 Adenosine receptor affinity test ([3H]-NECA displacement, PC12 membranes). In kind it is binding. The settings on record: rat PC12 cell membranes, 30° C., 90 minutes. The procedure:
The separated cells are then suspended in hypotonic solution (distilled water), allowed to stand on ice for 30 minutes and are then carefully homogenized using a standard high-speed homogeniser with periodic ice-cooling to obtain a fine suspension. […] The mixture is then incubated at 37° C. After 20 minutes, the reaction is terminated by dilution with ice-cold buffer and transfer onto ice. The material obtained containing the cell membranes is recovered by centrifugation and washed by resuspension in buffer and recentrifugation. The pellet produced is then resuspended in ice-cold buffer using a hand-driven homogenizer. The resultant membrane suspension is frozen and stored under liquid nitrogen until required.
After incubation, the samples are rapidly filtered over glass-fibre mats and the filter mats are washed to remove non-receptor-bound radioligand. Receptor-bound radioligand entrapped on the filter mats is then determined by liquid scintillation counting. Filtration and washing are carried out using a conventional vacuum filtration cell harvester. The specific binding (defined as the difference between the total binding and the non-specific binding) in the presence of the particular test compound is determined and compared with the control value.

T2 sequence (P30543 whole entry): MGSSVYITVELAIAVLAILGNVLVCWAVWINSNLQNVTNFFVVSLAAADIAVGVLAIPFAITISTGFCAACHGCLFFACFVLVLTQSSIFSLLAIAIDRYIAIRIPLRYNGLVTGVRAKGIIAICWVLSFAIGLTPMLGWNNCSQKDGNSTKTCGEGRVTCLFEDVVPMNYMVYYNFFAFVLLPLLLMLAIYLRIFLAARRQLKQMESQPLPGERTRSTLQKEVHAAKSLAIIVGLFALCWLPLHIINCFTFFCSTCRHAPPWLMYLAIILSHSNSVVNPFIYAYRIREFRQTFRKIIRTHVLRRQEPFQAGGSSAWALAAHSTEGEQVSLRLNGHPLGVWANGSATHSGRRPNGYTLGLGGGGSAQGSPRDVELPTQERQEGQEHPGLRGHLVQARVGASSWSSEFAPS

For the molecule `Cn1c(=O)c2[nH]cnc2n(C)c1=O` [1,3-dimethylxanthine], the “inhibition of vasodilatation during skeletal muscle contraction” value in assay [1] was “significant inhibition”. Further, the pA2 entry in assay [2] was “about 5”.

For orientation: IC50 means the concentration that inhibits the measured activity by half. High values mean weaker potency, low ones greater potency. `Nc1nc(NCCc2ccc(Oc3nc(N)n4nc(-c5ccco5)nc4n3)cc2)nc2nc(-c3ccco3)nn12` [Example 1, 7-amino-5-[4-(2-[7-amino-2-(2-furyl)-[1,2,4]triazolo[1,5-a][1,3,5]triazin-5-ylamino]ethyl)phenoxy]-2-(2-furyl)[1,2,4]triazolo[1,5-a][1,3,5]triazine]: the Kb in assay [3] is 1 µM. The same molecule had an IC50 at A2 Adenosine receptor of roughly 0.000794 µM.
